Reference: PMC6820788, “Structural insights of human mitofusin-2 into mitochondrial fusion and CMT2A onset” (Nature Communications, 2019)
Residue numbers refer to the chain shown, from its start. Names may count otherwise.

What was measured:
MFN1IM [1] = molecular target: T1, MFN1IM (Homo sapiens, UniProt Q8IWA4, DEL365-694); assay: ITC; format: binding
T1 construct: gene MFN1; internally truncated (residues 365-694 removed, G domain + HD1); E. coli; His6 cut by PreScission
T1 sequence (Q8IWA4 1-364): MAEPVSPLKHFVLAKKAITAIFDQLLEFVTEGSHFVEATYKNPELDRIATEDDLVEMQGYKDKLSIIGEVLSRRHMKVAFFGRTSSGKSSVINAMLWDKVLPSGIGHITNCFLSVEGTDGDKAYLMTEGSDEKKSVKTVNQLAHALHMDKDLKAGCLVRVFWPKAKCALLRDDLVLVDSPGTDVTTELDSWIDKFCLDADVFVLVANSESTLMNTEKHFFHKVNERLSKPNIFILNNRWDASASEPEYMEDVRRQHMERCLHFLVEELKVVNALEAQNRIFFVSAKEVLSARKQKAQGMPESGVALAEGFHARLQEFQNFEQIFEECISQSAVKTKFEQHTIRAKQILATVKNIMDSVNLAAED
T1 sequence (Q8IWA4 695-741): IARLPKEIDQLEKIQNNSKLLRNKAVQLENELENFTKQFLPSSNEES

MFN2IM [2] = molecular target: T2, MFN2IM (Homo sapiens, UniProt O95140, DEL401-705); assay: ITC; format: binding
T2 construct: gene MFN2; deletion of residues 1-21 and 401-705 (G domain + HD1); E. coli; N-terminal His6 cut by PreScission
T2 sequence (O95140 22-400): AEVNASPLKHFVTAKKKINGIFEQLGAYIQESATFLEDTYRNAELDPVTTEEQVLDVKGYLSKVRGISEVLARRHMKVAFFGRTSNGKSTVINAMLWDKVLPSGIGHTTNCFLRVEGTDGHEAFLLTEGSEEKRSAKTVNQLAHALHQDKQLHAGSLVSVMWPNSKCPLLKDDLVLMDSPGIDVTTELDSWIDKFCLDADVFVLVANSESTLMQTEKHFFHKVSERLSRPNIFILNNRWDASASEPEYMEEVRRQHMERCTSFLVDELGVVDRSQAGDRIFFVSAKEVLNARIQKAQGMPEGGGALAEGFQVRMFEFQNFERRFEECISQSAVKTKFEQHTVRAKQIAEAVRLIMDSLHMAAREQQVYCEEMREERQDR
T2 sequence (O95140 706-757): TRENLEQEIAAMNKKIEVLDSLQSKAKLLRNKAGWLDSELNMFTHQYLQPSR

MFN1IM [3] = molecular target: T3, MFN1IM (Homo sapiens, UniProt Q8IWA4, I108T/DEL365-694); assay: stopped-flow fluorescence, displacement by unlabeled GDP; format: binding; details: labelled compound; pH 7.5, 150 mM KCl, 5 mM MgCl2
T3 construct: gene MFN1; internally truncated (residues 365-694 removed, G domain + HD1); E. coli; His6 cut by PreScission
T3 sequence (Q8IWA4 1-364 I108T): T1 sequence (Q8IWA4 1-364) with I108T
T3 sequence (Q8IWA4 695-741): T1 sequence (Q8IWA4 695-741)

MFN2IM [4] = molecular target: T4, MFN2IM (Homo sapiens, UniProt O95140, T129I/DEL401-705); assay: as above; format: binding; details: labelled compound; pH 7.5, 150 mM KCl, 5 mM MgCl2
T4 construct: gene MFN2; deletion of residues 1-21 and 401-705 (G domain + HD1); E. coli; N-terminal His6 cut by PreScission
T4 sequence (O95140 22-400 T129I): T2 sequence (O95140 22-400) with T108I
T4 sequence (O95140 706-757): T2 sequence (O95140 706-757)

MFN2IM [5] = molecular target: T2, MFN2IM; assay: stopped-flow fluorescence, nucleotide exchange; format: binding; details: labelled compound; protein preincubated with GDP; pH 7.5, 150 mM KCl, 5 mM MgCl2
MFN1IM [6] = molecular target: T1, MFN1IM; assay: stopped-flow fluorescence, nucleotide exchange; format: binding; details: labelled compound; protein preincubated with GDP; pH 7.5, 150 mM KCl, 5 mM MgCl2
mouse MFN2IM (mm) = molecular target: T5, mouse MFN2IM (mm) (Mus musculus, UniProt Q80U63); assay: GTP hydrolysis, HPLC; format: biochemical; details: 37 °C, pH 7.5, 150 mM KCl, 5 mM MgCl2
T5 construct: gene Mfn2; internally truncated counterpart of human MFN2IM
T5 sequence (Q80U63 22-400 limits assumed): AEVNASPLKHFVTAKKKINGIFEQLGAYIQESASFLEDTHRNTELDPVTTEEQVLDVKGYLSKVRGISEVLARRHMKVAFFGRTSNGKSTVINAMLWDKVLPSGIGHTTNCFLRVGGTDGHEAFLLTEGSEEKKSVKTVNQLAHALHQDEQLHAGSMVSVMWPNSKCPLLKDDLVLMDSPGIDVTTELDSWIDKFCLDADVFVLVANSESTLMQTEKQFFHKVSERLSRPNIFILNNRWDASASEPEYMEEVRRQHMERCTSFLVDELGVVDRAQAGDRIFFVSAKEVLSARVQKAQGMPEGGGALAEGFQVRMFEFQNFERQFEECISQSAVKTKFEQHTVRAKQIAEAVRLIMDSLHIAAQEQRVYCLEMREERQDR
T5 sequence (Q80U63 706-757 limits assumed): T2 sequence (O95140 706-757) with E3D, I16V, V18A, K25R

mouse MFN1IM (mm) = molecular target: T6, mouse MFN1IM (mm) (Mus musculus, UniProt Q811U4); assay: GTP hydrolysis, HPLC; format: biochemical; details: 37 °C, pH 7.5, 150 mM KCl, 5 mM MgCl2
T6 construct: gene Mfn1; internally truncated counterpart of human MFN1IM
T6 sequence (Q811U4 1-364 limits assumed): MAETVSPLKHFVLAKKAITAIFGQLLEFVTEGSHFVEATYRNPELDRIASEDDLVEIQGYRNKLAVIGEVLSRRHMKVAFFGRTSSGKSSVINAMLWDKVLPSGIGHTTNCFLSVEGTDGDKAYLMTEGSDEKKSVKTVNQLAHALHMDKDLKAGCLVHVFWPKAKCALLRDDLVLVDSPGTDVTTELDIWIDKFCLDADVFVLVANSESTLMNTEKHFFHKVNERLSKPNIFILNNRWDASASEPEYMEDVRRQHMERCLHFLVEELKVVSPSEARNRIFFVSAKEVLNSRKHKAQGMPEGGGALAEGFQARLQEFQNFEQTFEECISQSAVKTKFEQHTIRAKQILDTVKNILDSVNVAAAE
T6 sequence (Q811U4 695-741 limits assumed): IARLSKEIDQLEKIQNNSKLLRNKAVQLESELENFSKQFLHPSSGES

[7] = molecular target: the molecule itself; assay: SEC-RALS; analytical gel filtration (Superdex 200 10/300) coupled to right-angle light scattering; 50 μM protein incubated with 500 μM GTP or GDP∙BeF3− for 2 h at room temperature; 20 mM HEPES pH 7.5, 150 mM KCl, 5 mM MgCl2, 1 mM DTT
MBP-fused MFN2IM = molecular target: T7, MBP-fused MFN2IM (human, UniProt O95140 22-757, deletions of residues 1–21 and 401–705); assay: native gel or EMSA; blue native PAGE at 4 °C; MBP-tagged MFN1IM/MFN2IM mixed with 10 μM partner and tenfold GDP∙BeF3−, 2 h at room temperature; Coomassie stain; details: both partners purified
T7 construct: human mitofusin-2 (MFN2) with residues 1-21 and 401-705 deleted (MFN2IM); also called MBP-tagged MFN2IM; wild-type MFN2IM (native PAGE)
T7 sequence (looked up): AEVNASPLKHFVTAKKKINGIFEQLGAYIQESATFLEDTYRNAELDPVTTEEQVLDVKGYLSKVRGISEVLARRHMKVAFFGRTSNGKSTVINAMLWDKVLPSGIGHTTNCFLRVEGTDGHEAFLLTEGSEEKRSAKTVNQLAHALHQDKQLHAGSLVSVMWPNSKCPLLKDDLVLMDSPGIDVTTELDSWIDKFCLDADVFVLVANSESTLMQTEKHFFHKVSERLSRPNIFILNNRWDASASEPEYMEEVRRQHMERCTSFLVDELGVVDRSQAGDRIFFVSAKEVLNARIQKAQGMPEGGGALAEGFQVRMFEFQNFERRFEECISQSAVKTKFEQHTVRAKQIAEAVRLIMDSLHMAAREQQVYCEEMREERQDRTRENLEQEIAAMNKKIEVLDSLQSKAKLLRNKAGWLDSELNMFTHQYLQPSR

**Q.** `Nc1nc2c(ncn2[C@@H]2O[C@H](COP(=O)(O)OP(=O)(O)OP(O)(O)=S)[C@@H](O)[C@H]2O)c(=O)[nH]1` [GTPγS] was tested. Which Kd (MFN1IM [1]) did it give?
**A.** 83 ± 5.34 µM

**Q.** And the Kd (MFN2IM [2])?
**A.** 3.3 ± 0.52 µM

**Q.** Which results are given for `CNc1ccccc1C(=O)O[C@H]1[C@@H](O)[C@H](n2cnc3c(=O)[nH]c(N)nc32)O[C@@H]1COP(=O)(O)OP(=O)(O)O` [mant-GDP]?
**A.** GDP off-rate (MFN1IM [3]): GDP off-rates of MFN2IM(T129I) and MFN1IM(I108T); GDP off-rate (MFN2IM [4]): GDP off-rates of MFN2IM(T129I) and MFN1IM(I108T)

**Q.** What does the source list for `Nc1nc2c(ncn2[C@@H]2O[C@H](COP(=O)(O)OP(=O)(O)O)[C@@H](O)[C@H]2O)c(=O)[nH]1` [GDP]?
**A.** Kd (MFN1IM [1]): 217 ± 23.8 µM; Kd (MFN2IM [2]): 14.4 ± 0.63 µM

**Q.** For `CNc1ccccc1C(=O)O[C@H]1[C@@H](O)[C@H](n2cnc3c(=O)[nH]c(N)nc32)O[C@@H]1COP(=O)(O)OP(=O)(O)OP(=O)(O)O` [mant-GTP], which “stopped-flow fluorescence, nucleotide exchange” value (MFN2IM [5]) is on record?
**A.** MFN2IM bound more mant-GTP over time due to a higher affinity to GTP

**Q.** And the “stopped-flow fluorescence, nucleotide exchange” value (MFN1IM [6])?
**A.** G domain dimerization greatly reduced the mant-GTP reload rate of both MFN2IM and MFN1IM

**Q.** What does the source list for `Nc1nc2c(ncn2[C@@H]2O[C@H](COP(=O)(O)OP(=O)(O)OP(=O)(O)O)[C@@H](O)[C@H]2O)c(=O)[nH]1` [GTP]?
**A.** GTP turnover rate (mouse MFN2IM (mm)): Mouse MFN1IM and MFN2IM showed weak GTPase hydrolysis; GTP turnover rate (mouse MFN1IM (mm)): Mouse MFN1IM and MFN2IM showed weak GTPase hydrolysis

B1: MFN2IM (modified human MFN2 construct with deletions of residues 1–21 and 401–705) (domain or fragment, UniProt O95140 22-757, looked up)
chain: T7 sequence (looked up)
notes: human mitofusin-2 (MFN2) with residues 1-21 and 401-705 deleted (MFN2IM); Theoretical molecular mass 52.6 kDa; also called truncated human MFN2; wild-type MFN2IM; source: E. coli Rosetta (DE3), purified (Ni-NTA, His6-tag removed with PreScission protease, second Ni-NTA, gel filtration); not shown: His6, N-terminal, cleaved
**Q.** Which “stoichiometry N” value [7] does the source give for B1 here?
**A.** 2

B2: MFN2IM R364P (CMT2A-related mutant) (domain or fragment, human, UniProt O95140 22-757, looked up)
chain: T7 sequence (looked up) with R343P
notes: human mitofusin-2 (MFN2) with residues 1-21 and 401-705 deleted (MFN2IM), CMT2A-related point mutant; source: E. coli Rosetta (DE3), purified; not shown: His6, N-terminal, cleaved
**Q.** Does B2 bind [7]?
**A.** binds

B3: MFN2IM L248V (CMT2A-related mutant) (domain or fragment, human, UniProt O95140 22-757, looked up)
chain: T7 sequence (looked up) with L227V
notes: as for B2
**Q.** Does B3 bind [7]?
**A.** binds

B4: MFN2IM P251L (CMT2A-related mutant) (domain or fragment, human, UniProt O95140 22-757, looked up)
chain: T7 sequence (looked up) with P230L
notes: as for B2
**Q.** Does B4 bind [7]?
**A.** binds

B5: MFN2IM R364W (CMT2A-related mutant) (domain or fragment, human, UniProt O95140 22-757, looked up)
chain: T7 sequence (looked up) with R343W
notes: as for B2
**Q.** Does B5 bind [7]?
**A.** binds

B6: MFN2IM R94Q (CMT2A-related mutant) (domain or fragment, human, UniProt O95140 22-757, looked up)
chain: T7 sequence (looked up) with R73Q
notes: as for B2
**Q.** Does B6 bind [7]?
**A.** binds

B7: MFN2IM R94W (CMT2A-related mutant) (domain or fragment, human, UniProt O95140 22-757, looked up)
chain: T7 sequence (looked up) with R73W
notes: as for B2
**Q.** Does B7 bind (MBP-fused MFN2IM)?
**A.** binds
